According to patent publication US20080269282A1, “Compounds for Inhibiting Copper-Containing Amine Oxidases and Uses Thereof” (GENMEDICA THERAPEUTICS SL, priority 2004, published 2008):

Target: T1, Human SSAO (Homo sapiens, UniProt Q16853)
T1 construct: Human or mice adipose tissue homogenates, used as a source of SSAO activity; from tissue; host or cells: human adipose tissue homogenate
T1 sequence (Q16853 1-763): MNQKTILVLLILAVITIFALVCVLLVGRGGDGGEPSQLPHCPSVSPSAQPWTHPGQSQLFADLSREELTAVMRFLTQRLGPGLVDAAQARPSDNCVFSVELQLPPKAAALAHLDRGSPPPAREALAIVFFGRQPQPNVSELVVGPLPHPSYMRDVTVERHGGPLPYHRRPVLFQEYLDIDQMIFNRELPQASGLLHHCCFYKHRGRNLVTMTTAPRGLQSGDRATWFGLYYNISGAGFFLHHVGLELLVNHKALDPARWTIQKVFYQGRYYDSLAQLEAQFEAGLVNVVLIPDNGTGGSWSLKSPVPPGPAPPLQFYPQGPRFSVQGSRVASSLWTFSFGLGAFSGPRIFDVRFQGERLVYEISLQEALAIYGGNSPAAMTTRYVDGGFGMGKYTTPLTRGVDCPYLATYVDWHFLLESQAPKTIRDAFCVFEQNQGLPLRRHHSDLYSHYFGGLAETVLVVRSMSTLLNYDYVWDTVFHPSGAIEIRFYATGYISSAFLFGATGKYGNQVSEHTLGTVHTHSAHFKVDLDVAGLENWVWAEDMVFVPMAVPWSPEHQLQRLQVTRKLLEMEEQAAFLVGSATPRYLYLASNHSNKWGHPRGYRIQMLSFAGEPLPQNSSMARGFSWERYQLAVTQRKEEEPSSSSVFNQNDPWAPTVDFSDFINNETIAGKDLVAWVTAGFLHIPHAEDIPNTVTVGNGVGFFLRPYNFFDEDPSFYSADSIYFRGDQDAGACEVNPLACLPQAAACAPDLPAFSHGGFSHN
Experiment: SSAO activity determination (Amplex Red/HRP detection of H2O2 from benzylamine oxidation)
Type: biochemical
Conditions: human adipose tissue homogenate, benzylamine substrate, 37° C., 20 min preincubation
Method: SSAO activity determination: All assays were performed at 37° C. with SSAO from human or mice adipose tissue. The enzyme activity was measured through detection of hydrogen peroxide formed by the oxidation of benzylamine. This method is based on the horseradish peroxidase catalyzed hydrogen peroxide oxidation of 10-acetyl-3,7-dihydroxyphenoxazine (Molecular Probes A-6550), that produces resorufin a highly fluorescent product (excitation, 545 nm; emission, 590 nm) (Zhou and Panchuk-Voloshina, 1997). Human or mice adipose tissue homogenates, used as a source of SSAO activity, were preincubated in 96 well microplates for 20 min at 37° C. in 180 μL of 200 mM Phosphate buffer and H2O2-detecting mixture containing horseradish peroxidase (final concentration 1 U/mL) and Amplex Red reagent (60 μM) and different concentrations of inhibitors when necessary. […] Fluorescence intensity of the samples was measured continuously during 1 h (excitation, 545 nm; emission, 590 nm) and H2O2 concentration was calculated from calibration curves generated by serial dilutions of standard H2O2. […]
The inhibition was measured as % decrease of the signal compared to a control without inhibitor. Blank values in absence of substrates were subtracted from the fluorescence for each experimental condition. The IC50 shown in Table 1 were calculated with GraphPad Prism 4 program.

## Cc1[nH]c2ccccc2c1CC(=O)NCC(=O)NO [compound 4]
  IC50: 0.033 ± 0.006 µM
